{"source": "patent US7632633B2", "about": "“Method for determining the degree of protein oxidation in a skin sample using oxidized protein in stratum corneum as an indicator” (Shiseido Company, Ltd., priority 2004, dated 2009)", "key": {"[1]": {"test_system": "stratum corneum of porcine skin", "experiment": "Stratum corneum water holding capacity of dry pig skin after oxidation treatment (SKINCON-200)", "conditions": "dry pig skin immersed in acrolein 0, 1, 10 and 100 mM for 3 hours; dried at humidity 50%, temperature 250° C., measured 15 minutes later", "method": "(§1) Dry pig skin (Alloask, Taiho Pharmaceutical) was immersed in water for 3 days. The pig skin was removed and subjected to oxidation treatment by immersing in an acrolein solution (Tokyo Chemical Industry) at 0, 1, 10 and 100 mM for 3 hours. Acrolein oxidizes by acting on protein resulting in the formation of an aldehyde-protein adduct. Following oxidation treatment, the pig skin was rinsed with water for 1 hour. After rinsing, the pig skin was initially dried (humidity: 50%, temperature: 250° C.) in a Petri dish with the stratum corneum side facing upward followed 15 minutes later by measuring the moisture content of the stratum corneum with the SKINCON-200 (IBS).\nThe results of measuring the moisture content of the stratum corneum are shown in FIG. 1 as skin conductance values."}, "[2]": {"test_system": "stratum corneum of black pig skin", "experiment": "Stratum corneum water holding capacity of black pig skin after oxidation treatment (SKINCON-200)", "conditions": "1 hour", "method": "Black pig skin was subjected to oxidation treatment for 1 hour with a 10 mM acrolein solution. After rinsing with water for 1 hour, the water was carefully wiped off, and the change in the water content of the stratum corneum over time was measured with the SKINCON-200.\nBlack pig skin was treated for 1 hour with 20 mM hypochlorous acid. After rinsing with water for 1 hour, the water was carefully wiped off, and the change in the water content of the stratum corneum over time was measured with the SKINCON-200."}, "[3]": {"test_system": "stratum corneum of porcine skin", "experiment": "Stratum corneum transparency of dry pig skin after oxidation treatment (observation)", "conditions": "dry pig skin immersed in acrolein 0, 1, 10 and 100 mM for 3 hours; dried (humidity 50%, 25° C.), observed over 24 hours", "method": "as §1, with “was” for “was removed and”, “25°” for “250°”, “followed” for “followed 15 minutes later”, “observation” for “measuring the moisture content”, “dried pig skin over” for “stratum corneum with”, “course of 24 hours.” for “SKINCON-200 (IBS).”"}, "[4]": {"test_system": "stratum corneum of human forearm skin", "experiment": "Stratum corneum water holding capacity of human forearm skin after occlusion treatment (SKINCON-200)", "type": "in vivo", "conditions": "occlusion 1 hour, 20 mM hypochlorous acid vs PBS", "method": "Human forearm skin was subjected to occlusion treatment for 1 hour with PBS or 20 mM hypochlorous acid. After rinsing with water for 1 hour, the water was carefully wiped off, and the change in the water content of the stratum corneum over time was measured with the SKINCON-200."}}}
{"compound": "C=CC=O", "note": "[acrolein]", "values": [{"measurement": "moisture content of the stratum corneum (skin conductance)", "setting": "[1]", "result": "decrease in moisture content was observed that was dependent on the concentration"}, {"measurement": "change in the water content of the stratum corneum over time (ability to hold water)", "setting": "[2]; 10 mM acrolein solution", "result": "A decrease was observed in the ability of stratum corneum of the pig skin to hold water"}, {"measurement": "transparency of the stratum corneum", "setting": "[3]", "result": "transparency decreased concentration-dependently"}]}
{"compound": "OCl", "note": "[hypochlorous acid]", "values": [{"measurement": "change in the water content of the stratum corneum over time (ability to hold water)", "setting": "[2]; 20 mM hypochlorous acid", "result": "A decrease was observed in the ability of stratum corneum of the pig skin to hold water"}, {"measurement": "change in the water content of the stratum corneum over time (water holding capacity)", "setting": "[4]", "result": "decrease in water holding capacity"}]}
